Data: patent US10906901B2, “Crystal form and salt form of N-phenyl-2-aminopyrimidine compound, and preparation method therefor” (HAINAN YUEKANG BIOMEDICINES CO., LTD., priority 2017, dated 2021)
Converted amounts (≈) assume the structure as drawn.

Columns and labels:
[1] = Bioavailability assay, single oral dose of capsules in Beagle dogs; settings: single oral dose 3 mg/kg, crystalline powders in capsules
[2] = Accelerated stability test; format: physicochemical
[3] = test system: cells with single or double EGFR mutations; settings: described in Chinese Patent Application 201610679161.7; cited from earlier work
physchem = settings: thermodynamic from solid
Method: Subsequently, 2 mL of buffer solutions at pH 1.2 and 6.8 were added respectively to prepare a saturated solution. The above resulting suspensions were placed in a shaker and shaken at a speed of 200 rpm for 2 hours at 25° C. The resulting mixtures were filtered, and the filtrates were diluted by an appropriate multiple and analyzed by HPLC to determine the solubility of each sample in different media.

[4] = Dynamic Vapor Sorption (DVS); format: physicochemical
EGFR = EGFR (Homo sapiens, UniProt P00533); settings: described in Chinese Patent Application 201610679161.7; cited from earlier work
EGFR, sequence (P00533 25-1210): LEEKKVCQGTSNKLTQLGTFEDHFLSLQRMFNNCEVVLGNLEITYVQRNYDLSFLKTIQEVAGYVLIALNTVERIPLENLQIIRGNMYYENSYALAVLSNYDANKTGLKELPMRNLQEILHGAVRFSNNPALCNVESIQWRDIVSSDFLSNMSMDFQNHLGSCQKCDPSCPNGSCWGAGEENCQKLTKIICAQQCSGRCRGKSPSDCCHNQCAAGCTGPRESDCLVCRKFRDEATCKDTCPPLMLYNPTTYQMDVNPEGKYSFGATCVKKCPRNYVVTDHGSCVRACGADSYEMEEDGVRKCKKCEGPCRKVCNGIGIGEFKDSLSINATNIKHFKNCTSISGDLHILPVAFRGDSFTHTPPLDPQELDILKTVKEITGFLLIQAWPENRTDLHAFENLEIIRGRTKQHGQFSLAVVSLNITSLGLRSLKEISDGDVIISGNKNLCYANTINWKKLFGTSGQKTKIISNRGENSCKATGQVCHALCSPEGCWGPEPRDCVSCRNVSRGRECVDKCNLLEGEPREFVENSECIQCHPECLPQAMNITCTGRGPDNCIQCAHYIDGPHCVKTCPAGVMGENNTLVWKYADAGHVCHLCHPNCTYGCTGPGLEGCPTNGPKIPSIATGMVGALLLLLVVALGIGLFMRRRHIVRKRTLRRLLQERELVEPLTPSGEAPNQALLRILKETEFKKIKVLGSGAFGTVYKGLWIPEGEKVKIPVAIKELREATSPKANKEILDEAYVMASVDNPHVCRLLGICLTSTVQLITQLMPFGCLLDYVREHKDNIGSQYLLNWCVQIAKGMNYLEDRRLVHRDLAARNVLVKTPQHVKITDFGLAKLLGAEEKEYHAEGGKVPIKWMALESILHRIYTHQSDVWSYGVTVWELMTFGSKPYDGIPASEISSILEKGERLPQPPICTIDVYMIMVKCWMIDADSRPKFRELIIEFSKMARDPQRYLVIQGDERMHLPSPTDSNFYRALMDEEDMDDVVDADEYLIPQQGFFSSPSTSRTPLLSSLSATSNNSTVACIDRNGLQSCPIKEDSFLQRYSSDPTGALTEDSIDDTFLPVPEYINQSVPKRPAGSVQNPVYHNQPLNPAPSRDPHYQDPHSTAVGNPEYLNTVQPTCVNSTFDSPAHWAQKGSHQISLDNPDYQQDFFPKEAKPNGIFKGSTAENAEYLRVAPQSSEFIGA

Row | Molecule | AUC(0-t) [1] [ng·h/mL] | Cmax [1] [ng/mL] | peak time Tmax [1] [h] | crystal structure after the accelerated stability test [2] | chemical stability ([2]; when avoiding the light) | inhibitory activity on cells with single or double EGFR mutations [3] | solubility at 2 h (physchem; buffer solution pH 1.2, 25 °C, pH 1.2, simulated gastric fluid) [mg/mL] | solubility at 2 h (physchem; buffer solution pH 6.8, 25 °C, pH 6.8, aqueous buffer) [mg/mL] | hygroscopicity ([4]; DVS curve at 25° C.) | moisture absorption ([4]; at 80% RH) [%] | inhibitory activity against EGFR (EGFR) | selectivity to EGFR mutants (EGFR)
1 | Benzoate | 856.41 | 203.15 | 2 |  |  |  |  |  |  |  |  | 
2 | C=CC(=O)Nc1cc(Nc2nccc(-c3cnc4c(C)cccn34)n2)c(OC)cc1N(C)CCN(C)C [Compound 1, N-(2-methoxy-4-(N^1,N^2,N^2-trimethyl-1,2-ethylenediamine-1-yl)-5-acrylamidephenyl)-4-(8-methylimidazo[1,2-a]pyridin-3-yl)pyrimidin-2-amine] |  |  |  | does not change | good chemical stability | strong inhibitory activity | 38.1 (≈ 76.1 mM) | 6.75 (≈ 13.5 mM) | almost no hygroscopicity | 0.934 | significant inhibitory activity | high selectivity
